Format in all cases: functional
The test system of one assay is Bacillus subtilis. In words: Antimicrobial activity against Bacillus subtilis ATCC 23857 assessed as inhibition of visible bacterial growth incubated for 18 hrs by broth microdilution method. Background: In broth dilution the organism is exposed to a series of concentrations in liquid medium.
Assay [1] has as its system Pseudomonas aeruginosa. As to the kind of experiment: Antimicrobial activity against Pseudomonas aeruginosa ATCC 27853 assessed as inhibition of visible bacterial growth incubated for 18 hrs by broth microdilution method.
Assay [2] deals with Staphylococcus aureus. In words: Antimicrobial activity against gentamicin-resistant Staphylococcus aureus ATCC 25923 assessed as inhibition of visible bacterial growth incubated for 18 hrs by broth-dilution method.
In another assay the test system is Acinetobacter baumannii. As to the kind of experiment: Antimicrobial activity against Acinetobacter baumannii ATCC 19606 assessed as inhibition of visible bacterial growth incubated for 18 hrs by broth microdilution method.
For assay [3], the system named is Pseudomonas aeruginosa. As to the kind of experiment: Resistance fold, ratio of MIC for Pseudomonas aeruginosa ATCC 27853 measured after 10th passage to MIC for Pseudomonas aeruginosa ATCC 27853 measured immediately.
Assay [4] concerns Staphylococcus aureus. In words: Resistance fold, ratio of MIC for Staphylococcus aureus ATCC 25923 measured after 8th passage to MIC for Staphylococcus aureus ATCC 25923 measured immediately.
The subject of assay [5] is Staphylococcus aureus. As to the kind of experiment: Antimicrobial activity against Staphylococcus aureus ATCC 25923 assessed as inhibition of visible bacterial growth incubated for 18 hrs by broth-dilution method.
Another assay concerns Enterococcus faecalis. As to the kind of experiment: Antimicrobial activity against Enterococcus faecalis ATCC 29212 assessed as inhibition of visible bacterial growth incubated for 18 hrs by broth-dilution method.
The next assay has as its system Klebsiella pneumoniae. As to the kind of experiment: Antimicrobial activity against Klebsiella pneumoniae ATCC 700603 assessed as inhibition of visible bacterial growth incubated for 18 hrs by broth microdilution method.
Assay [6] has as its system Pseudomonas aeruginosa. As to the kind of experiment: Antimicrobial activity against gentamicin-resistant Pseudomonas aeruginosa ATCC 27853 assessed as inhibition of visible bacterial growth incubated for 18 hrs by broth microdilution method.
In another assay the test system is Escherichia coli. As to the kind of experiment: Antimicrobial activity against Escherichia coli ATCC 25922 assessed as inhibition of visible bacterial growth incubated for 18 hrs by broth microdilution method.
For assay [7], the system named is Staphylococcus epidermidis. In words: Antimicrobial activity against Staphylococcus epidermidis ATCC 12228 assessed as inhibition of visible bacterial growth incubated for 18 hrs by broth-dilution method.

Structures are written as SMILES. ≈ marks a conversion by molar mass, not a printed value.

We go through one compound from ChEMBL document CHEMBL6153094, “Rationally designed highly amphipathic antimicrobial peptides demonstrating superior bacterial selectivity relative to the corresponding α-helix peptide” (Eur J Med Chem, 2025).

For the compound `CN[C@@H]1[C@@H](O)[C@@H](O[C@@H]2[C@@H](O)[C@H](O[C@H]3O[C@H]([C@@H](C)NC)CC[C@H]3N)[C@@H](N)C[C@H]2N)OC[C@]1(C)O` [GENTAMICIN C1], the MIC in the assay with Bacillus subtilis is under 1 µM; with Pseudomonas aeruginosa [1] it was under 1 µM; in the assay on Staphylococcus aureus [2], 32 µM (≈ 15.3 µg/mL); in the assay with Acinetobacter baumannii it was 16 µM (≈ 7.64 µg/mL); in the assay with Staphylococcus aureus [5], under 1 µM; in the assay with Enterococcus faecalis, 16 µM (≈ 7.64 µg/mL). The MIC was 16 µM (≈ 7.64 µg/mL) in the assay on Klebsiella pneumoniae, 64 µM (≈ 30.6 µg/mL) in the assay on Pseudomonas aeruginosa [6], 2 µM (≈ 0.955 µg/mL) in the assay on Escherichia coli and under 1 µM in [7]. Besides, the “fold change (FC)” value with Pseudomonas aeruginosa [3] and in the assay with Staphylococcus aureus [4] was 32 throughout.

Usually MIC stands for the least concentration at which growth counts as inhibited.
